Experimental data as given in EP0657176B1, “Composition containing a water-insoluble or slightly water-soluble compound with enhanced water-solubility” (priority 1993, dated 1995).
≈ marks a conversion by molar mass, not a printed value. Read-outs that look alike come from different tables or passages of the source.

Legend:
rats = test: Toxicity in rats, intravenous administration every day for 2 weeks (Experiment 3); assay type: in vivo
Procedure: Four male rats were used. β-CyD-G2-COOH was dissolved in sterilized water. The solution was intravenously administered to rats in daily doses of 1 ml/kg, 3 ml/kg, and 10 ml/kg (containing β-CyD-G2-COOH in amounts of 100 mg/kg, 300 mg/kg, and 1000 mg/kg, respectively) every day for 2 weeks.
As a control, the toxicity of β-CyD-G2 was studied according to the same manner.

[1] = Water-solubility of the cephalosporin antibiotic alone or combined with β-CyD-G2-COONa or β-CyD (Example 3, HPLC); assay type: physicochemical; details: cephalosporin antibiotic (free form) in water, with β-CyD-G2-COONa or β-CyD 1:2 (mol ratio), lyophilized powder 100 mg + water 1 ml, alone: shaken at 25 °C for 8 hours, read-out: solubilities of the antibiotic
Procedure: (§1) The aqueous solution was added to the ethanol solution and mixed with it with stirring. The resulting solution was lyophilized in vacuo to give powder. Water (1 ml) was added to the powder (100 mg) to obtain a homogeneous aqueous solution, i.e., a composition of the present invention. On the other hand, the antibiotic alone was added to water, and the mixture was vigorously shaken at 25 °C for 8 hours and filtered through a membrane filter of 0.22 µm.
The antibiotic in the above homogeneous aqueous solution and filtrate was determined by high performance liquid chromatography (HPLC). As a result, the solubilities in Table 3 were obtained.

[2] = Water-solubility of the antineoplastic agent alone or combined with β-CyD-G2-COONa or β-CyD (Example 1, HPLC); assay type: physicochemical; details: 6-O-(N-chloroacetylcarbamoyl)fumagillol in water, with β-CyD-G2-COONa or β-CyD 1:2 (mol ratio), lyophilized powder 100 mg + water 1 ml, alone: shaken at 25 °C for 4 hours, 0.22 µm filter, read-out: solubilities of the antineoplastic agent
Procedure: The antineoplastic agent 6-O-(N-chloroacetylcarbamoyl)fumagillol (100 mg) was dissolved in ethanol (4 ml). […] The aqueous solution was added to the ethanol solution and mixed with it with stirring. The resulting solution was lyophilized in vacuo to give powder. Water (1 ml) was added to the powder (100 mg) to obtain a homogeneous aqueous solution, i.e., a composition of the present invention.
On the other hand, the antineoplastic agent alone was added to water, and the mixture was vigorously shaken at 25 °C for 4 hours and filtered through a membrane filter of 0.22 µm.
The antineoplastic agent in the above homogeneous aqueous solution and filtrate was determined by high performance liquid chromatography (HPLC). As a result, the solubilities in Table 1 were obtained.

[3] = Water-solubility of the antineoplastic agent alone or combined with α-CyD-G2-COONa or α-CyD (Example 2, HPLC); assay type: physicochemical; details: 6-O-(N-chloroacetylcarbamoyl)fumagillol in water, with α-CyD-G2-COONa or α-CyD 1:2 (mol ratio), lyophilized powder 100 mg + water 1 ml, alone: shaken at 25 °C for 4 hours, 0.22 µm filter, read-out: solubilities of the antineoplastic agent
Procedure: as §1, with “antineoplastic agent” for “antibiotic”, “4” for “8”
The antineoplastic agent in the above homogeneous aqueous solution and filtrate was determined by high performance liquid chromatography (HPLC). As a result, the solubilities in Table 2 were obtained.

[4] = Hemolytic effect on rabbit erythrocytes (Experiment 1, Fig. 1); details: rabbit, erythrocytes, phosphate buffer, pH 7.4
Procedure: (§4) To this was added sodium 6-O-cyclomaltoheptaosyl-(6→1)-α-D-glucosyl-(4→1)-O-α-D-glucuronate (β-CyD-G2-COONa) was added so that the concentration thereof became 1 to 40 mM. The mixture was shaken at 37°C for 30 minutes and then centrifuged to separate the supernatant. […] The amount of hemoglobin bursted in water instead of isotonic phosphate buffer was used as a standard (100%), and the relative ratio to it was indicated as a hemolytic ratio.
(§5) Further, according to the same manner as that described above except using β-cyclodextrin (β-CyD) instead of β-CyD-G2-COONa, the hemolytic ratio was determined.
(§6) (Control: β-cylodextrin 4 mM, 6-O-α-D-glucosyl-(1→4)-α-D-glucosyl-β-cyclodextrin 8 mM)

[5] = Water-solubility of the cyclodextrins themselves
[6] = Stability to acid: half-life in 0.1N HCl solution
[7] = cited from earlier work
Pullulanase = molecular target: T1, Pullulanase (Klebsiella pneumoniae, UniProt P07206); test: Stability to enzymatic treatment with pullulanase (Experiment 4, Fig. 5); assay type: in vitro ADME; details: 10 mM aqueous cyclodextrin, pullulanase 10 unit/ml, 37°C, 0 to 120 minutes; read-out: decomposed in the enzymatic treatment with pullulanase
T1 construct: purchased
T1 sequence (P07206 20-1090): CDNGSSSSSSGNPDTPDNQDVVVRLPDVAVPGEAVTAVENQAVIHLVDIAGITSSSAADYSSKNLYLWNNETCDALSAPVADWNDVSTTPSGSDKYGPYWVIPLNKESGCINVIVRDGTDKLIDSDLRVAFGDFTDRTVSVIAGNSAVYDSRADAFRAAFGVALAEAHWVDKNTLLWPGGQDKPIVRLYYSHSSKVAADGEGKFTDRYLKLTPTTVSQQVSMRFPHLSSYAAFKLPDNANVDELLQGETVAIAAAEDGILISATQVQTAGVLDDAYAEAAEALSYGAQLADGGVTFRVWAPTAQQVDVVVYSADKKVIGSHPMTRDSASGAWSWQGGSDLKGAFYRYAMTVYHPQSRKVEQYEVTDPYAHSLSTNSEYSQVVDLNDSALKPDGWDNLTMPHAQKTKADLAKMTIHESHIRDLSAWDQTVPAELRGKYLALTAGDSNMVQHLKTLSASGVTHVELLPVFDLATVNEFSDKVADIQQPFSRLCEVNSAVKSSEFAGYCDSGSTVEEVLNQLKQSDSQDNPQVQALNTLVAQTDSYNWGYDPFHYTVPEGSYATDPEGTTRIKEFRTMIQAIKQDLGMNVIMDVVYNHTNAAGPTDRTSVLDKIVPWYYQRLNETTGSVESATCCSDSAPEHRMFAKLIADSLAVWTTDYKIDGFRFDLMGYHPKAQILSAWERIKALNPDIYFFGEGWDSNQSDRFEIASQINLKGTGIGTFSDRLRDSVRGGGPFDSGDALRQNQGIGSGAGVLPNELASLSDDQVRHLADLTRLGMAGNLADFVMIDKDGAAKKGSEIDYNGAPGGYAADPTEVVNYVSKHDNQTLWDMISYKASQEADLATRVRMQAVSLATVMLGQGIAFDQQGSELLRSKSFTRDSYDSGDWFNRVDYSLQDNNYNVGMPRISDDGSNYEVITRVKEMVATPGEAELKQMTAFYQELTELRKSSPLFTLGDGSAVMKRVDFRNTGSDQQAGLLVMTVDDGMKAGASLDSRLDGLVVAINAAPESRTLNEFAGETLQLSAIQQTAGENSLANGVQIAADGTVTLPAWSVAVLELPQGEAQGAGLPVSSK
Procedure: (§2) As a control, 6-O-α-maltosyl-β-cyclodextrin was used. Test method: Each of prescribed amounts of the following enzymes was added to a 10 mM aqueous solution of cyclodextrin to be tested. The mixture was allowed to stand in a water bath at 37°C. 50 µl of each mixture was sampled, and the enzyme was inactivated by heating it at 100°C for 15 minutes, centrifuged at 15,000 rpm for 5 minutes, filtered through Millipore USY-1 (differential molecular weight: 10,000), diluted 10 times and subjected to HPLC analysis. HPLC analytic conditions: • Column; NH2P-50 (Asahipak) • Mobile phase; CH3CN:H2O=48:52 to which 0.005M PIC reagent was added. • Flow rate; 0.8 ml/minute • Detection; RI The ratio of the remaining cyclodextrin at 0 to 120 minutes was determined from the above HPLC analysis of each sample.
(§3) Each unit is as described in the instruction book of the enzyme obtained from above market. Results: Changes of the ratio of remaining 6-O-α-D-glucuronyl(1→4)-α-D-glucosyl-β-cyclodextrin sodium salt (branched cyclodextrin-carboxylic acid salt) and 6-O-α-maltosyl-β-cyclodextrin (branched cyclodextrin) with the passage of time are shown in Figures 3 to 6. In the figures, black triangles represent the branched cyclodextrin-carboxylic acid salt, and black dots represent the branched cyclodextrin.

Rabbit erythrocytes [8] = test: Hemolytic effect on rabbit erythrocytes (Experiment 1, Fig. 1); details: 0.25% rabbit erythrocyte suspension, 10 mM isotonic phosphate buffer (pH 7.4), 1 to 40 mM, 37°C, 30 minutes
Procedure: as §4, §5, §6

[9] = water
Rabbit erythrocytes [10] = details: phosphate buffer, pH 7.4
Procedure: as §4, §5, §6

Glucoamylase = molecular target: T2, Glucoamylase (Rhizopus oryzae, UniProt P07683); assay type: in vitro ADME, Rhizopus sp.; details: 10 mM aqueous cyclodextrin, glucoamylase 2 unit/ml, 37°C, 0 to 120 minutes; compared with 6-O-α-maltosyl-β-cyclodextrin
T2 construct: purchased
T2 sequence (P07683 26-604): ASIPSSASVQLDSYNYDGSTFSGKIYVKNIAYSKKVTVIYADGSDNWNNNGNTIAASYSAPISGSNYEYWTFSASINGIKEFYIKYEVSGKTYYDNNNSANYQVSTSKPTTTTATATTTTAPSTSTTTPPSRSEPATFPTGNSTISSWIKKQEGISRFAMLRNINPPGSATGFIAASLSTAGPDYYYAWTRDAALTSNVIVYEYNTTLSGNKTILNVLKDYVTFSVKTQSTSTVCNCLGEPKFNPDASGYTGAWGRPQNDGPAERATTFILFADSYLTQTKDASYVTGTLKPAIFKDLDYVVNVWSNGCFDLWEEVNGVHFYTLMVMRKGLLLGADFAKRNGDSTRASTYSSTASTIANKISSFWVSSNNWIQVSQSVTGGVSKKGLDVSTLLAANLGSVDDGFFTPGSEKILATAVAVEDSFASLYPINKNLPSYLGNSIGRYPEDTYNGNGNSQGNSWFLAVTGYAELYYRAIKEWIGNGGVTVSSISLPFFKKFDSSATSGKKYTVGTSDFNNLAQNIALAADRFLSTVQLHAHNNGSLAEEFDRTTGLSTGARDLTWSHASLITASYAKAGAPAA
Procedure: as §2, §3

β-Glucuronidase = molecular target: T3, β-Glucuronidase (Bos taurus, UniProt A3KMY8); test: Stability to enzymatic treatment with β-glucuronidase (Experiment 4, Fig. 6); assay type: in vitro ADME, Calf liver; details: 10 mM aqueous cyclodextrin, β-glucuronidase 700 unit/ml, 37°C, 0 to 120 minutes; compared with 6-O-α-maltosyl-β-cyclodextrin
T3 construct: purchased; host or cells: calf liver (per earlier reading)
T3 sequence (A3KMY8 1-652): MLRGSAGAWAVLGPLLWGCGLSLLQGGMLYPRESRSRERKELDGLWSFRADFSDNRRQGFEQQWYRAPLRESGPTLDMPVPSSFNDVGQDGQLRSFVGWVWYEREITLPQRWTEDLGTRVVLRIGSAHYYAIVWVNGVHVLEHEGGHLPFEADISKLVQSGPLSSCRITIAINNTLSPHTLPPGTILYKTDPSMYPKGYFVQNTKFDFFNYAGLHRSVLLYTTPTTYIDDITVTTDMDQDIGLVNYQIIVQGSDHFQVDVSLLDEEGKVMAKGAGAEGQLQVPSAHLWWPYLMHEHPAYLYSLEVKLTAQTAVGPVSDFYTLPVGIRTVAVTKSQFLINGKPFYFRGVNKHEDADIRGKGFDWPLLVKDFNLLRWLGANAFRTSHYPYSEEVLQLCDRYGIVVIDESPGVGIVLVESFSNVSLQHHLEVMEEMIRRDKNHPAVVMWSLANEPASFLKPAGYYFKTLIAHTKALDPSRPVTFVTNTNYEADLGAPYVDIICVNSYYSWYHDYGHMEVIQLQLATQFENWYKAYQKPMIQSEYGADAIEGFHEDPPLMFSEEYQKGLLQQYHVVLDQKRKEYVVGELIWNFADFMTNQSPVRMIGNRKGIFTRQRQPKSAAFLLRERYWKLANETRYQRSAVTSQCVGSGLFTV
Procedure: as §2, §3

Human erythrocytes = test: Hemolytic effect on human erythrocytes (Experiment 2, Fig. 2); assay type: cell-based; details: 0.1M isotonic phosphate buffer (pH 7.4), 5 to 30 mM, 37°C, 30 minutes
Procedure: Human erythrocytes were added to 0.1M isotonic phosphate buffer (pH 7.4) to prepare a 20% suspension. The 20% erythrocyte suspension (100 µl) was added to an isotonic buffer (4 ml) containing β-CyD-G2-COONa in a concentration of 5 to 30 mM.
The results are in Figure 2 together with the above results for comparison.

[11] = male rats, 100 mg/kg, 300 mg/kg and 1000 mg/kg every day for 2 weeks

For “6-O-cyclomaltoheptaosyl-(6→1)-α-D-glucosyl-(4→1)-O-α-D-glucuronic acid [β-CyD-G2-COOH]”, the “Pathological and histological examination” value (rats; [11]) was “no serious findings such as necrosis”, the death (rats; [11]) was “No rats died” and the “general appearance, diet intake amount, body weight, urine sediments, hematological examination” value (rats; [11]) was “No abnormality was observed”.

In the case of `COC1C(OC(=O)NC(=O)CCl)CCC2(CO2)C1C1(C)OC1CC=C(C)C` (centres unmarked) [Antineoplastic agent alone], the solubility [1] is reported as 2.5 mg/mL, the solubility [2] is reported as 1.8 mg/mL and the solubility [3] is reported as 1.8 mg/mL.

`OC[C@H]1O[C@@H]2O[C@H]3[C@H](O)[C@@H](O)[C@@H](O[C@H]4[C@H](O)[C@@H](O)[C@@H](O[C@H]5[C@H](O)[C@@H](O)[C@@H](O[C@H]6[C@H](O)[C@@H](O)[C@@H](O[C@H]7[C@H](O)[C@@H](O)[C@@H](O[C@H]8[C@H](O)[C@@H](O)[C@@H](O[C@H]1[C@H](O)[C@H]2O)O[C@@H]8CO)O[C@@H]7CO)O[C@@H]6CO)O[C@@H]5CO)O[C@@H]4CO)O[C@@H]3CO` [β-CyD, β-cyclodextrin] gave an HC50 [4] of 4 mM.

`OC[C@H]1O[C@H](O[C@H]2[C@H](O)[C@@H](O)[C@@H](OC[C@H]3O[C@@H]4O[C@H]5[C@H](O)[C@@H](O)[C@@H](O[C@H]6[C@H](O)[C@@H](O)[C@@H](O[C@H]7[C@H](O)[C@@H](O)[C@@H](O[C@H]8[C@H](O)[C@@H](O)[C@@H](O[C@H]9[C@H](O)[C@@H](O)[C@@H](O[C@H]%10[C@H](O)[C@@H](O)[C@@H](O[C@H]3[C@H](O)[C@H]4O)O[C@@H]%10CO)O[C@@H]9CO)O[C@@H]8CO)O[C@@H]7CO)O[C@@H]6CO)O[C@@H]5CO)O[C@@H]2CO)[C@H](O)[C@@H](O)[C@@H]1O` [β-CyD-G2, 6-O-α-maltosyl-β-cyclodextrin] showed an HC50 [4] of 8 mM, a solubility [5] of 1500 mg/mL (≈ 1030 mM) and a half-life [6] of 5 h. For the same compound, the “Pathological and histological examination” value (rats; rats, every day for 2 weeks, 300 mg/kg and 1000 mg/kg groups) was “renal tubule epithelium vacuolation and necrosis”, the Urine examination (rats; rats, every day for 2 weeks, 1000 mg/kg group) was “occult blood and an increase in LDH and NAG” and the “observed signs (general appearance)” value (rats; rats, every day for 2 weeks, groups of 300 mg/kg and 1000 mg/kg) was “Auricle flush and peripheral swelling in the extremities”. For the same compound, the “water-solubility relative to that of β-cyclodextrin” value ([7]; stated as known) was “several tens of times that of β-cyclodextrin” and the metabolised at 2 h, 10000 µM (Pullulanase) was roughly 60%.

For “sodium 6-O-cyclomaltoheptaosyl-(6→1)-α-D-glucosyl-(4→1)-O-α-D-glucuronate [β-CyD-G2-COONa]”, the “hemolytic effect (hemolytic ratio vs cyclodextrin concentration, Figure 1)” value (Rabbit erythrocytes [8]) was “much less hemolytic effect than that of β-CyD”, the “Half-life in 0.1N HCl solution at 60°C” value was 8 h and the solubility [9] was greater than 200 g/100 ml. The HC50 (Rabbit erythrocytes [10]) was 11 mM, the “stability to the enzymatic treatment with glucoamylase” value (Glucoamylase) was “more stable” and the “stability to the enzymatic treatment with β-glucuronidase” value (β-Glucuronidase) was “more stable”. The “hemolytic effect (hemolytic ratio vs cyclodextrin concentration, Figure 2)” value (Human erythrocytes) was “much less hemolytic effect than that of β-CyD, β-CyD-G1 or β-CyD-G2”.

In the case of α-cyclodextrin [α-CyD], the water-solubilities ([7]; water) is listed as “about 15%”.
